Patent US3958011A, “Compositions of tri-n-propylacetic acid and salts thereof and treatment of neurological disorders with such compositions” (priority 1972, dated 1976)
Like-named read-outs stand apart in the source and are kept apart here.

What was measured:
mice [1] = assay: Evasion test (tranquillizing properties); assay type: in vivo; details: for Total number of exits per batch: batch of 28 mice; for Average time before first exit: controls 14
Description: This test enables the exploring capacities of mice to be studied. A parallelepipedic lidless plywood box is used which contains an inclined plane, also of plywood, covered with a fine mesh. A horizontal datum line is marked on the inclined plane 2 cm below the point at which the plane bears on the box edge. The whole device is placed in an artificially lit room away from all shrill noise. Any crossing, in an upward direction, by a mouse of the datum line is termed an "exit".
The test was carried out on batches of 28 mice weighing about 22 g. The animals of each batch received an intraperitoneal dose of the compound to be studied so that each batch received a higher dose than the preceding batch.
Thirty minutes after administration of the compound, the animals were placed in the box by batches and kept at the bottom for 10 seconds by a movable board. The average length or time after which the first exit occurred was noted as well as the total number of exits per batch every minute for 5 minutes. The same details were also recorded for a control batch which had not received the compound. The following results were obtained with the preferred compound of the invention namely sodium tri-n-propylacetate: […]

mice [2] = assay: Traction test (myorelaxant properties); assay type: in vivo, mice (OF 1); details: for Number of animals which have lost the traction reflex: groups of 10; for ED50: Mus musculus, ip, read-out: ED50, loss of traction reflex
Description: This test enables sense of balance as well as muscular tonus and strength to be evaulated.
The test is carried out on groups of 10 male mice of the OF 1 strain weighing about 25 g. It consists of suspending the mice by the front paws to a horizontally stretched wire. Note is first taken of the time required by a group of control animals to effect recovery i.e. to place at least one of their back paws on the wire.

Compound: CCCC(CCC)(CCC)C(=O)[O-].[Na+] [Sodium tri-n-propylacetate, sodium tri-n-propylacetate]
- Total number of exits per batch (mice [1]; 50 mg/kg i.p., 1 min.): 54
- Total number of exits per batch (mice [1]; 50 mg/kg i.p., 2 min.): 44
- Total number of exits per batch (mice [1]; 50 mg/kg i.p., 3 min.): 43
- Total number of exits per batch (mice [1]; 50 mg/kg i.p., 4 min.): 41
- Total number of exits per batch (mice [1]; 50 mg/kg i.p., 5 min.): 28
- Average time before first exit (mice [1]; 50 mg/kg i.p.): 25 s
- Total number of exits per batch (mice [1]; 75 mg/kg i.p., 1 min.): 44
- Total number of exits per batch (mice [1]; 75 mg/kg i.p., 2 min.): 37
- Total number of exits per batch (mice [1]; 75 mg/kg i.p., 3 min.): 31
- Total number of exits per batch (mice [1]; 75 mg/kg i.p., 4 min.): 34
- Total number of exits per batch (mice [1]; 75 mg/kg i.p., 5 min.): 28
- Average time before first exit (mice [1]; 75 mg/kg i.p.): 21 s
- Number of animals which have lost the traction reflex (mice [2]; 20 mg/kg i.p., 15 min.): 1
- Number of animals which have lost the traction reflex (mice [2]; 20 mg/kg i.p., 30 min.): 2
- Number of animals which have lost the traction reflex (mice [2]; 20 mg/kg i.p., 45 min.): 0
- Number of animals which have lost the traction reflex (mice [2]; 50 mg/kg i.p., 15 min.): 0
- Number of animals which have lost the traction reflex (mice [2]; 50 mg/kg i.p., 30 min.): 1
- Number of animals which have lost the traction reflex (mice [2]; 50 mg/kg i.p., 45 min.): 2
- Number of animals which have lost the traction reflex (mice [2]; 75 mg/kg i.p., 15 min.): 3
- Number of animals which have lost the traction reflex (mice [2]; 75 mg/kg i.p., 30 min.): 0
- Number of animals which have lost the traction reflex (mice [2]; 75 mg/kg i.p., 45 min.): 1
- Number of animals which have lost the traction reflex (mice [2]; 100 mg/kg i.p., 15 min.): 8
- Number of animals which have lost the traction reflex (mice [2]; 100 mg/kg i.p., 30 min.): 1
- Number of animals which have lost the traction reflex (mice [2]; 100 mg/kg i.p., 45 min.): 0
- Number of animals which have lost the traction reflex (mice [2]; 150 mg/kg i.p., 15 min.): 10
- Number of animals which have lost the traction reflex (mice [2]; 150 mg/kg i.p., 30 min.): 10
- Number of animals which have lost the traction reflex (mice [2]; 150 mg/kg i.p., 45 min.): 9
- ED50 (mice [2]; 0.25 h): 80 mg/kg
- ED50 (mice [2]; 0.5 h): 110 mg/kg
- ED50 (mice [2]; 0.75 h): 130 mg/kg
- Time of maximum myorelaxant activity after administration (mice [2]; intraperitoneal): 15 min
- Activity index: NTD50/ED50 (mice [2]; rota rod NTD50 / traction ED50, 30 minutes after administration): 1.1
